{"source": "patent US12648952B2", "about": "“Methods of treatment using ICAM-modulating agents” (AVM Biotechnology, LLC, priority 2020, dated 2026)", "key": {"whole blood [1]": {"system": "whole blood", "assay": "Ex vivo whole blood incubation, immune cell numbers (Study 6)", "format": "cell-based, mouse or human", "experimental": "The profound in vivo activity that is observed in naïve mice and in cancer models must therefore be mediated through the mobilized supercharged Natural Killer T cells, T cells and dendritic cells after AVM0703 HED 6 mg/kg and higher."}, "splenocytes": {"system": "splenocytes", "assay": "Ex vivo splenocyte viability by flow cytometry (Study 24)", "format": "cell-based, mouse", "experimental": "Splenocytes were cultured for 16 hours prior to assay execution."}, "whole blood [2]": {"system": "whole blood", "assay": "Ex vivo glucocorticoid comparison, whole blood CBC analysis", "format": "cell-based", "conditions": "overnight, room temperature"}, "[3]": {"system": "lymphocytes, monocytes, NKT cells, T cells, dendritic cells", "assay": "In vivo immune cell mobilisation and ablation after high dose glucocorticoid", "parameters": "species or system mice", "conditions": "HED 15 mg/kg and higher", "text": "High doses of glucocorticoid exert powerful biological effects that will contribute to the treatment of lymphocyte-mediated diseases and cancers, as well as microbial diseases. […] This cell type is discussed in greater detail below.\nCD4CD8 double positivity on CD3 T lymphocytes indicates a cytotoxic T cell. […] In vivo only lymphocytes, monocytes, some neutrophils and cancer cells have been ablated.\nAVM_NKT cells are NKp46+ and Ly6G positive, indicating the potential to directly kill targets as well as to engulf them. The typical AVM_NKT summarized above are not CD1d restricted. […] In vivo, glucocorticoids ablate lymphocytes other than NK and NKT cells, and monocytes, within 6 hours after oral dosing of naïve mice. In tumor models the novel NKT and T cell are not observed in the blood. However, within 48 hours of dosing NKp46+ cells and Ly6G+ cells, which are not macrophages as they are negative for F4/80, can be found in formations within the tumors, surrounding regions of remaining viable tumor. This indicates the functional potency of these cells. In the tumor setting, the AVM novel immune cells are not observed in the blood. They appear to preferentially home to the abnormal cells, in this case cancer cells, and circulating normal monocytes and neutrophils are not depleted as they are in the naïve setting."}, "[4]": {"conditions": "cited from earlier work"}, "[5]": {"conditions": "ex vivo or in vitro concentrations equal to peak blood concentrations of HED 7-15 mg/kg or greater"}}, "data": [{"molecule": "C[C@@H]1C[C@H]2[C@@H]3CCC4=CC(=O)C=C[C@]4(C)[C@@]3(F)[C@@H](O)C[C@]2(C)[C@@]1(O)C(=O)CO", "note": "[dexamethasone base]", "values": [{"measurement": "response of ex vivo whole blood", "setting": "whole blood [1]; 100 uM up to 500 uM", "result": "no response"}, {"measurement": "numbers of lymphocytes, monocytes, eosinophils, basophils in whole blood", "setting": "whole blood [1]; 500 μM dexamethasone base or 50 RU486, 16 hr, room temperature", "result": "no change in numbers"}, {"measurement": "lymphocyte-killing activity in whole blood", "setting": "whole blood [1]; 500 μM dexamethasone base or 50 RU486 alone", "result": "does not induce the lymphocyte-killing activity seen in in vivo experiments"}, {"measurement": "response of isolated splenocytes", "setting": "splenocytes; 100 uM up to 500 uM", "result": "no response"}, {"measurement": "concentrations that do not trigger splenocyte cell death", "setting": "splenocytes; after 4 hours", "result": "above 100 μM"}, {"measurement": "concentrations with direct killing activity on splenocytes", "setting": "splenocytes; after 4 hours", "result": "lower than 100"}]}, {"molecule": "C[C@@H]1C[C@H]2[C@@H]3CCC4=CC(=O)C=C[C@]4(C)[C@@]3(F)[C@@H](O)C[C@]2(C)[C@@]1(O)C(=O)COP(=O)(O)O", "note": "[dexamethasone phosphate]", "values": [{"measurement": "differences between dexamethasone formulations in ex vivo CBC analysis", "setting": "whole blood [2]", "result": "no noticeable differences"}, {"measurement": "in vivo effects on colon, pancreas or bone", "setting": "[3]", "result": "no effects on colon, pancreas or bone"}, {"measurement": "induction of CD3-very-high T cells and CD11b-very-high dendritic cells", "setting": "[3]", "result": "CD11b-very-high dendritic cells are also induced"}, {"measurement": "direct apoptotic effect on whole blood", "setting": "whole blood [1]; [5]", "result": "no direct apoptotic effect"}, {"measurement": "direct apoptotic effect on splenocytes", "setting": "splenocytes; [5]", "result": "no direct apoptotic effect"}]}, {"molecule": "C[C@]12C=CC(=O)C=C1CC[C@@H]1[C@@H]2C(=O)C[C@@]2(C)[C@H]1CC[C@]2(O)C(=O)CO", "note": "[prednisone]", "values": [{"measurement": "biologic half-life", "setting": "[4]", "result": "about 20 hours"}]}]}
